Experiment [1] is described as follows: Antioxidant activity assessed as free radical scavenging activity. Type of experiment: functional.
Experiment [2] is described as follows: Antioxidant activity assessed as inhibition of AAPH-induced rat erythrocytes hemolysis. Type of experiment: functional, cell-based. Particulars: erythrocyte.

Usually IC50 stands for the concentration at which inhibition is half-maximal.

Values after ≈ are worked out from the molar mass of the structure shown.

Consider `CC(C)=CCC/C(C)=C/CN1c2cc(C(=O)c3ccccc3)ccc2Nc2c(C(=O)O)cc(C(=O)c3ccccc3)cc21` [BENTHOPHOENIN], for which the IC50 in experiment [1] was 0.15 µg/mL (≈ 0.263 µM); in experiment [2] it was 0.8 µg/mL (≈ 1.4 µM). In the case of VITAMIN E, in experiment [1], the concentration for half-maximal inhibition (IC50) was 10.8 µg/mL.

The values above are taken from ChEMBL document CHEMBL1148186, “Structure of Benthophoenin, a New Free Radical Scavenger Produced by Streptomyces prunicolor” (J Nat Prod, 1993).
